According to ChEMBL document CHEMBL2424568, “Phenylpyrazolo[1,5-a]quinazolin-5(4H)-one: a suitable scaffold for the development of noncamptothecin topoisomerase I (Top1) inhibitors” (J Med Chem, 2013):
Activity calls are given as the source filed them. The calls are words filed in the database; no cut-off is given here.

Target: T1, DNA topoisomerase 1 (Homo sapiens) (UniProt P11387)
T1 sequence (whole entry): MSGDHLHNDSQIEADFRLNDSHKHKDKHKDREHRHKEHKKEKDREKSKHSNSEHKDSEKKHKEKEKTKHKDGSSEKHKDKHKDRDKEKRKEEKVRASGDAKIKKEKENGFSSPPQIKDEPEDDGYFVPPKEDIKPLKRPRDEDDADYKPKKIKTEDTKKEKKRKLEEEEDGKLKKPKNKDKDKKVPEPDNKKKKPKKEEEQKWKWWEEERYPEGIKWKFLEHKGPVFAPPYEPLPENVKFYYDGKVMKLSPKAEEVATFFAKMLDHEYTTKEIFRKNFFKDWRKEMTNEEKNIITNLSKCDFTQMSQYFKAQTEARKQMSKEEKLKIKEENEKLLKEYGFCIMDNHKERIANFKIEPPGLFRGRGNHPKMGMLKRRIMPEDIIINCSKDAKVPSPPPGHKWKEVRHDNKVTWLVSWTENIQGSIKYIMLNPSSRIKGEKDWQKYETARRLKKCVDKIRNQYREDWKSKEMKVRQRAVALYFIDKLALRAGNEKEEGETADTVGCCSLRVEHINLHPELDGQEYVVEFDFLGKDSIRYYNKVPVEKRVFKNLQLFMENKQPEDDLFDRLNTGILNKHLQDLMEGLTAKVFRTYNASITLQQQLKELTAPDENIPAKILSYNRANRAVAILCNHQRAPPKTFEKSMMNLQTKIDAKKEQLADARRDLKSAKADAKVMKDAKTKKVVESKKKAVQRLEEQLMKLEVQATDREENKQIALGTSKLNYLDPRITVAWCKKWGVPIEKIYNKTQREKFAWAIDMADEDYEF
Assay: Inhibition of recombinant DNA topoisomerase 1 (unknown origin) assessed as inhibition of topoisomerase 1-mediated DNA cleavage at 1 uM after 20 mins by SDS-PAGE analysis

Compound | Top1 DNA cleavage inhibition (active/not active)
CN(C)CCCn1c(=O)c2ccccc2n2nc(-c3ccccc3)cc12 | inactive
CCN(CC)CCOc1nc2c(-c3ccc(Cl)cc3)cnn2c2ccccc12 | inactive
CN(C)CCCOc1nc2c(-c3ccc(C(F)(F)F)cc3)cnn2c2ccccc12 | inactive
Clc1ccc(-c2cnn3c2nc(NCCCc2ncc[nH]2)c2ccccc23)cc1 | inactive
COc1cc2c3c(n(CCCNCCO)c(=O)c2cc1OC)-c1cc2c(cc1C3=O)OCO2 | Active

Target: T1, DNA topoisomerase 1 (Homo sapiens)
Assay: Inhibition of recombinant DNA topoisomerase 1 (unknown origin) assessed as inhibition of topoisomerase 1-mediated DNA cleavage at 1 to 100 uM after 20 mins by SDS-PAGE analysis relative to control

Compound | Top1 cleavage inhibition (active/inactive)
CN(C)CCOc1nc2cc(-c3ccccc3)nn2c2ccccc12 | Active
CN(C)CCCOc1nc2cc(-c3ccccc3)nn2c2ccccc12 | inactive
CCN(CC)CCOc1nc2cc(-c3ccccc3)nn2c2ccccc12 | Active
COc1ccc(-c2cnn3c2nc(NCCCN(C)C)c2ccccc23)cc1 | Active
CCN(CC)CCOc1nc2c(-c3ccccc3)cnn2c2ccccc12 | Active
CN(C)CCn1c(=O)c2ccccc2n2nc(-c3ccccc3)cc12 | Active
O=c1c2ccccc2n2nc(-c3ccccc3)cc2n1CCCc1ncc[nH]1 | inactive
CN(C)CCCOc1nc2c(-c3ccccc3)cnn2c2ccccc12 | Active
COc1ccc(-c2cnn3c2nc(OCCCN(C)C)c2ccccc23)cc1 | Active
CCN(CC)CCOc1nc2c(-c3ccc(Cl)cc3)cnn2c2ccccc12 | Active
CCN(CC)CCNc1nc2c(-c3ccc(OC)cc3)cnn2c2ccccc12 | Active
CCN(CC)CCOc1nc2c(-c3ccc(OC)cc3)cnn2c2ccccc12 | Active
CN(C)CCOc1nc2c(-c3ccc(Cl)cc3)cnn2c2ccccc12 | Active
CN(C)CCCOc1nc2c(-c3ccc(C(F)(F)F)cc3)cnn2c2ccccc12 | inactive
Clc1ccc(-c2cnn3c2nc(NCCCc2ncc[nH]2)c2ccccc23)cc1 | inactive
CCN(CC)CCNc1nc2c(-c3ccccc3)cnn2c2ccccc12 | Active

Continued, values first:

Top1 cleavage inhibition (active/inactive) | Compound
inactive | FC(F)(F)c1ccc(-c2cnn3c2nc(NCCCc2ncc[nH]2)c2ccccc23)cc1
Active | CN(C)CCNc1nc2c(-c3ccc(C(F)(F)F)cc3)cnn2c2ccccc12
inactive | CCN(CC)CCNc1nc2cc(-c3ccccc3)nn2c2ccccc12
Active | CN(C)CCCNc1nc2c(-c3ccc(Cl)cc3)cnn2c2ccccc12
inactive | c1ccc(-c2cc3nc(NCCCc4ncc[nH]4)c4ccccc4n3n2)cc1
Active | CN(C)CCNc1nc2c(-c3ccc(Cl)cc3)cnn2c2ccccc12
Active | COc1ccc(-c2cnn3c2nc(OCCN(C)C)c2ccccc23)cc1
Active | CN(C)CCCNc1nc2c(-c3ccc(C(F)(F)F)cc3)cnn2c2ccccc12
inactive | COc1ccc(-c2cnn3c2nc(NCCCc2ncc[nH]2)c2ccccc23)cc1
Active | CCN(CC)CCNc1nc2c(-c3ccc(Cl)cc3)cnn2c2ccccc12
Active | CN(C)CCOc1nc2c(-c3ccc(C(F)(F)F)cc3)cnn2c2ccccc12
Active | c1ccc(-c2cnn3c2nc(NCCCc2ncc[nH]2)c2ccccc23)cc1
Active | CCN(CC)CCNc1nc2c(-c3ccc(C(F)(F)F)cc3)cnn2c2ccccc12
inactive | CN(C)CCCn1c(=O)c2ccccc2n2nc(-c3ccccc3)cc12
Active | CN(C)CCCOc1nc2c(-c3ccc(Cl)cc3)cnn2c2ccccc12
Active | CN(C)CCOc1nc2c(-c3ccccc3)cnn2c2ccccc12
Active | COc1ccc(-c2cnn3c2nc(NCCN(C)C)c2ccccc23)cc1
inactive | CCN(CC)CCOc1nc2c(-c3ccc(C(F)(F)F)cc3)cnn2c2ccccc12
